Reference: US20220289765A1, “CRYSTAL OF CARCINOGENIC FUSED KINASE INHIBITOR AND APPLICATIONS THEREOF” (Simcere Pharmaceutical Co., Ltd., priority 2019, published 2022)
Read-outs that look alike come from different tables or passages of the source.

Legend:
ALK = target: T1, ALK (Homo sapiens, UniProt Q9UM73); experiment: Kinase inhibitory activity (33P-ATP filtration-binding, Reaction Biology Corp.); assay type: biochemical; conditions: read-out: Half Inhibitory Concentrations of Kinases IC50, ALK
T1 construct: purchased Reaction Biology Corp
T1 sequence (Q9UM73 19-1620): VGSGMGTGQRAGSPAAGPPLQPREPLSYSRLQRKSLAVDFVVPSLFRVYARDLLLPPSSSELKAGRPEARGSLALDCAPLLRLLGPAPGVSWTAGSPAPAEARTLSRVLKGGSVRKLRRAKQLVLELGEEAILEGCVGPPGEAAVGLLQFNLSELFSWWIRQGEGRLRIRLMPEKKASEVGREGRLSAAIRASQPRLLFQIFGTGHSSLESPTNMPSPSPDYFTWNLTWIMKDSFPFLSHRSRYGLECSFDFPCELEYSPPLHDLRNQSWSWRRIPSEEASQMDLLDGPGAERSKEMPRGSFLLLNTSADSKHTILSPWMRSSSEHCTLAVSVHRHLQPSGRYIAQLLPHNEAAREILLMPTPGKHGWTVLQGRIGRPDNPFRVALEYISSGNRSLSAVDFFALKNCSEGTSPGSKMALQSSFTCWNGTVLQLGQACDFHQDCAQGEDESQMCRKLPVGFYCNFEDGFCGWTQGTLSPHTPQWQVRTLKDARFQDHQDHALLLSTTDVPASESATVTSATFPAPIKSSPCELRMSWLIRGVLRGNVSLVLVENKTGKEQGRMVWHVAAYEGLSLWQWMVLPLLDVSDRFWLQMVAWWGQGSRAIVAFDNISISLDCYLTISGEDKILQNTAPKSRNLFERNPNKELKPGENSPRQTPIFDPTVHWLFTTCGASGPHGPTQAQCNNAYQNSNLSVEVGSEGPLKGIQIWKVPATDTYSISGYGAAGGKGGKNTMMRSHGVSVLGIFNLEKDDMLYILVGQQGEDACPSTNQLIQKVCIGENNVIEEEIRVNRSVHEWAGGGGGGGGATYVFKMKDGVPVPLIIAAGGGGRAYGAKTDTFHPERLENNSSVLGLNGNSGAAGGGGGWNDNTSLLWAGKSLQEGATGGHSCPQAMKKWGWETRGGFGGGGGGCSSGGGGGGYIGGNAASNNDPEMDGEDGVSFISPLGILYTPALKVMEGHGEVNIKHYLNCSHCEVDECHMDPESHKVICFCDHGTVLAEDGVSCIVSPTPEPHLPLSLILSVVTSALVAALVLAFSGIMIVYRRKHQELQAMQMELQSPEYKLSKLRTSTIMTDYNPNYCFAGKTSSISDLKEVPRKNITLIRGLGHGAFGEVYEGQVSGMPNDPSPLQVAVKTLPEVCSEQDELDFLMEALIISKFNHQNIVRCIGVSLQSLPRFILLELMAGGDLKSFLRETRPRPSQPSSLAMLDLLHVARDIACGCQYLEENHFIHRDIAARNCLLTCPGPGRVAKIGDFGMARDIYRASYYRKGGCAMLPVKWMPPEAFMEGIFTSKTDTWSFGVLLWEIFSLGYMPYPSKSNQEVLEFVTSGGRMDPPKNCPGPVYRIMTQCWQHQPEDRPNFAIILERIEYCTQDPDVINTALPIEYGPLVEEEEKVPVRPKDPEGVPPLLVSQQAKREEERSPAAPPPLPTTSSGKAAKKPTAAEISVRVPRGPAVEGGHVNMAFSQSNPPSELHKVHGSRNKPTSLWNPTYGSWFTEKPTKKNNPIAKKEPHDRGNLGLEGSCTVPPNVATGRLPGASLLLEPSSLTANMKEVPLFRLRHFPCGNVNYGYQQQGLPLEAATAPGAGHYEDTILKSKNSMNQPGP
Procedure: The inhibitory activity tests of compounds against kinases such as TrkA, TrkC, ALK, Ros1 were completed in Reaction Biology Corp. Certain concentrations of substrate, cofactors, kinases and test compounds (10 doses, 3-fold serial dilutions, 2% DMSO final concentration) were sequentially added to the reaction buffer (20 mM Hepes (pH 7.5), 10 mM MgCl2, 1 mM EGTA, 0.02% Brij35, 0.02 mg/mL BSA, 0.1 mM Na3VO4, 2 mM DTT, 1% DMSO), and mixed well. The resulting mixture was incubated at room temperature for 20 minutes, and a certain concentration of 33P-ATP was added to the reaction mixture to initiate the reaction, followed by incubation at room temperature for 120 minutes. Finally, the radioactivity of the reactants was detected by a filtration-binding method. The final kinase activity was expressed by the ratio of the remaining kinase activity in the test sample to the kinase activity of the DMSO control group. The dose-effect curve was fitted by GraphPad software and the IC50 values were calculated.

[1] = test system: Ba/F3 LMNA-NTRK1-WT stable transformant cell line; experiment: Cell proliferation inhibition (CellTiter-Glo, 72 h); assay type: cell-based; conditions: Mus musculus, BaF3, read-out: Half Inhibitory Concentrations of Cells IC50, Ba/F3 LMNA-NTRK1-WT
Procedure: Adenosine Tri-Phosphate (ATP) is an energy carrier shared by various life activities in nature and is the smallest unit of energy storage and transfer. In CellTiter-Glo™ Live Cell Detection Kit, luciferase was used as a detection substance, and it required the involvement of ATP during luminescence. CellTiter-Glo™ reagent was added to the cell culture medium to measure a luminescence value, and the light signal was proportional to the amount of ATP in the system, and ATP was positively correlated to the number of viable cells. Therefore, by detecting the ATP content using the CellTiter-Glo Kit, cell proliferation can be detected. In this test, the cell line was Ba/F3 LMNA-NTRK1-WT stable transformant cell line, and the number of cells was 5000/well.
• a) Cells in the logarithmic growth phase were harvested and counted by using a […]. Cell viability was detected by trypan blue exclusion assay to ensure that the cell viability was above 90%. • b) The cell concentration was adjusted, and 90 μL cell suspension was added to a 96-well plate, respectively. • c) Cells in the 96-well plate were incubated overnight at 37° C., 5% CO2 and 95% humidity. […]
The data were analyzed using GraphPad Prism 5.0 software, and were fitted to obtain a dose-effect curve using a non-linear S-curve regression, and the IC50 values were calculated therefrom.

Ba/F3 LMNA-NTRK1-F589L = experiment: as above; assay type: cell-based; conditions: Mus musculus, BaF3, read-out: Half Inhibitory Concentrations of Cells IC50, Ba/F3 LMNA-NTRK1-F589L
BaF3 ETV6-NTRK3-G623R = experiment: as above; assay type: cell-based; conditions: Mus musculus, read-out: Half Inhibitory Concentrations of Cells IC50, BaF3 ETV6-NTRK3-G623R
Ba/F3 SLC34A2-ROS1-WT = experiment: as above; assay type: cell-based; conditions: Mus musculus, BaF3, read-out: Half Inhibitory Concentrations of Cells IC50, Ba/F3 SLC34A2-ROS1-WT
[2] = test system: Ba/F3 SLC34A2-ROS1-G2032R; experiment: as above; assay type: cell-based; conditions: Mus musculus, BaF3, read-out: Half Inhibitory Concentrations of Cells IC50, Ba/F3 SLC34A2-ROS1-G2032R
[3] = Pharmacokinetic test in mice; assay type: in vivo; conditions: male CD-1 mice; for AUC(0-t): read-out: Area under Curve AUC0-last
Procedure: The drug concentrations of the compounds in plasma at different time points were determined by LC/MS/MS method after single intravenous (IV) and intragastric (PO) administration of the compounds to 7-9 week old male CD-1 mice as the test animals. The pharmacokinetic behaviors of the compounds of the present invention in mice were studied and pharmacokinetic properties thereof were evaluated.
The compounds were prepared into clear solutions using 5% DMSO+10% solutol+85% water as a solvent for administration in IV (intravenous injection) and PO (gavage) groups. The administration dosage of each compound was 3 mg/kg for the IV group and […] for the PO group.

[4] = test system: human colon cancer cell line KM12 cells subcutaneous xenograft tumor; experiment: Efficacy test in mice, KM12 subcutaneous xenograft; assay type: in vivo, BALB/c mouse; conditions: PO
Procedure: The in vivo efficacy of test drugs such as the compound of Formula (I) on human colon cancer cell line KM12 cells subcutaneous xenograft tumor in a BALB/c mouse model was evaluated.
The compounds were prepared into clear solutions using 5% DMSO+10% solutol+85% water as a solvent for administration in PO (gavage) groups.
The tumor diameter was measured twice a week using a vernier caliper. The formula for calculating the tumor volume is: V=0.5×a×b^2, wherein a and b represent the long diameter and the short diameter of the tumor, respectively. The antitumor efficacy of the compounds was evaluated with TGI (%), which reflects the inhibition rate of tumor growth.
Statistical analysis was performed using SPSS software based on relative tumor volume and tumor weight at the end of the experiment. Comparisons among multiple groups were analyzed by one-way ANOVA. If the variances were homogeneous (no significant difference in F-values), the analysis was performed by the Tukey's method, and if the variances were not homogeneous (significant difference in F-values), the test was performed by the Games-Howell method. P<0.05 was considered as a significant difference.

IC50 (ALK): 13 nM | IC50 [1]: 1.26 nM | IC50 (Ba/F3 LMNA-NTRK1-F589L): 0.78 nM | IC50 (BaF3 ETV6-NTRK3-G623R): 3.4 nM | IC50 (Ba/F3 SLC34A2-ROS1-WT): 2.53 nM | IC50 [2]: 16.1 nM | Apparent Clearance Cl ([3]; IV, 3 mg/kg): 7.2 mL/min/kg | Vd ([3]; mouse, plasma, IV, 3 mg/kg, read-out: Apparent Distribution Volume Vd): 0.49 L/kg | AUC(0-t) ([3]; mouse, plasma, IV, 3 mg/kg): 17.5 µM·h | half-life ([3]; mouse, plasma, IV, 3 mg/kg, read-out: Half-life T1/2 (converted)): 45 min | bioavailability ([3]; mouse, plasma, PO (10 mL/kg [sic]) vs IV 3 mg/kg, read-out: Bioavailability F %): 51% | AUC(0-t) ([3]; mouse, plasma, PO, dosage given as 10 mL/kg): 29.8 µM·h | Cmax ([3]; mouse, plasma, PO, dosage given as 10 mL/kg, read-out: Peak Concentration Cmax): 9.14 µM | Tmax ([3]; mouse, plasma, PO, dosage given as 10 mL/kg, read-out: Time to Peak Tmax): 30 min
SMILES: O=C1NC2(CC2)COc2ncc(F)cc2[C@H]2CCON2c2ccn3ncc1c3n2 [Compound of Formula (I)]
T/C ([4]; 3 mg/kg): 33.18% | TGI ([4]; 3 mg/kg): 71.23% | T/C ([4]; 15 mg/kg): 15.63% | TGI ([4]; 15 mg/kg): 88.61%
